Where two headings read alike, the source gives them in different places.
Columns and labels:
Type in all cases: cell-based
NLRP3 inflammasome [1] = biological target: T1, NLRP3 inflammasome (Homo sapiens, UniProt Q96P20); experiment: NLRP3 inflammasome activation assay in PBMCs, IL-1β release (ELISA / HTRF); parameters: were freshly isolated from human peripheral blood from healthy donors; StemCells Technologies; host or cells: primary human PBMCs, LPS-primed, nigericin-stimulated; conditions: LPS primed
Method in brief: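 Human PBMCs primed with 100 ng/mL LPS for 3 h, pre-treated with compound for 30 min (0.00017–10 µM, or from 40 µM in 2-fold 20-point series), then stimulated with 10 µM nigericin for 1.5 h at 37 °C. Released IL-1β in supernatant quantified by ELISA or by HTRF (665/620 ratio, overnight RT).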

PBMCs = experiment: CTG (CellTiter-Glo) viability assay in PBMCs; conditions: LPS and nigericin stimulated
Protocol: (§1) Human peripheral blood mononuclear cells (PBMCs), consisting of lymphocytes (T, B and NK cells), monocytes and dendritic cells, were freshly isolated from human peripheral blood from healthy donors. Cells were obtained through an IRB approved donor program by iXCells Biotechnologies where all the donors were tested for bacterial and viral infections. Cells were purified from peripheral blood using ficoll gradient centrifugation.
(§2) Fresh or cryopreserved PMBCs were seeded in V-bottom 96-well plate at 0.5-1×10^5 cells per well and incubated overnight at 37° C. with 5% CO2 in RPMI 1640 medium with GlutaMAX supplement, 4.5 g/L D-glucose, 10% Fetal Bovine Serum (FBS), […] Sodium Pyruvate, 1% Penicillin/Streptomycin, 10 mM HEPES and 0.05 mM of β-mercaptoethanol. Freshly isolated or cryopreserved KCs cells were seeded in flat-bottom 96-well plates at 0.6-1.5×10^5 cells/well and incubated overnight at 37° C. 5% CO2 in RPMI 1640 Medium with GlutaMAX supplement, FBS, 1% Penicillin/Streptomycin and 10 mM HEPES. The following day, the cells were primed with 100 ng/mL of lipopolysaccharides (LPS; Sigma Aldrich) in FBS-free RPMI 1640 for 3 h. After the priming step, the media was removed and PBMCs were pre-incubated with serial concentrations of test compounds (0.00017-10 uM) or vehicle (DMSO) for 30 min in FBS-free media prior to addition of the NLRP3 activator. Cells were then stimulated with 10 uM Nigericin (Sigma Aldrich; InvivoGen) for 1.5 h. Plates were centrifuged at 1,500 rpm for 3 minutes to pellet cells and supernatant was transferred into new plates for subsequent experiments.
Viability of compound treated cells was measured using CellTiter-Glo® assay (Promega, Madison, Wis.) that measures the ATP content of cells which is proportional to the number of live cells within a well. This is a counter-screen to establish that the reduction of IL-1β levels in LPS and nigericin stimulated and compound treated cells is not due to cytotoxicity, but rather through the inhibition of the inflammasome pathway. Compounds inhibiting NRLP3 inflammasome activation ultimately increase the viability of LPS and nigericin stimulated cells by blocking NLRP3 mediated pyroptosis that would otherwise lead to cell lysis.

TNFα = TNFα counter-screen in LPS and nigericin stimulated PBMCs; conditions: human PBMCs
Protocol: as §1, §2
For ELISA assays cells were seeded into 96-well plates. Post study, supernatants were removed and the levels of mature IL-1β, IL18 and TNFα (Quantikine ELISA, R&D systems) were measured in cell conditioned media by ELISA according to manufacturer's instructions.
TNFα levels of LPS and nigericin stimulated cells were measured by HTRF assay (Cisbio, Bedford, MA). […] Measuring TNFalpha production also serves as a technical counter-screen to eliminate compounds that interfere with the HTRF reagents. Thus compounds that inhibit both IL-1β and TNFα levels are triaged for either being non-selective for inflammasome or interfering with the HTRF readout.

NLRP3 inflammasome [2] = biological target: T1, NLRP3 inflammasome; experiment: THP-1 ASC-GFP speck assay; parameters: host or cells: THP-1 ASC-GFP cells, PMA-differentiated, LPS-primed, nigericin-stimulated; conditions: THP-1 ASC-GFP cells, PMA differentiated, LPS primed, 10 μM nigericin; read-out: THP1 ASC Speck IC50
Method in brief: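 PMA-differentiated (500 ng/ml, overnight) THP-1 ASC-GFP cells primed with 1 μg/mL LPS for 3 h, preincubated 30 min with compound (top 40 μM, 2-fold, 20 points), then stimulated with 10 μM nigericin for 90 min at 37 °C. After fixation and Hoechst staining, imaging gave the percentage of cells bearing a GFP ASC speck.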

[3] = 10 μM nigericin, read-out: PBMC IL-1β IC50
[4] = human PBMCs, read-out: PBMC CTG IC50
[5] = 10 uM nigericin, read-out: PBMC IL-1 β IC50
[6] = PBMC, read-out: PBMC TNF α IC50

T1 sequence (Q96P20 whole entry): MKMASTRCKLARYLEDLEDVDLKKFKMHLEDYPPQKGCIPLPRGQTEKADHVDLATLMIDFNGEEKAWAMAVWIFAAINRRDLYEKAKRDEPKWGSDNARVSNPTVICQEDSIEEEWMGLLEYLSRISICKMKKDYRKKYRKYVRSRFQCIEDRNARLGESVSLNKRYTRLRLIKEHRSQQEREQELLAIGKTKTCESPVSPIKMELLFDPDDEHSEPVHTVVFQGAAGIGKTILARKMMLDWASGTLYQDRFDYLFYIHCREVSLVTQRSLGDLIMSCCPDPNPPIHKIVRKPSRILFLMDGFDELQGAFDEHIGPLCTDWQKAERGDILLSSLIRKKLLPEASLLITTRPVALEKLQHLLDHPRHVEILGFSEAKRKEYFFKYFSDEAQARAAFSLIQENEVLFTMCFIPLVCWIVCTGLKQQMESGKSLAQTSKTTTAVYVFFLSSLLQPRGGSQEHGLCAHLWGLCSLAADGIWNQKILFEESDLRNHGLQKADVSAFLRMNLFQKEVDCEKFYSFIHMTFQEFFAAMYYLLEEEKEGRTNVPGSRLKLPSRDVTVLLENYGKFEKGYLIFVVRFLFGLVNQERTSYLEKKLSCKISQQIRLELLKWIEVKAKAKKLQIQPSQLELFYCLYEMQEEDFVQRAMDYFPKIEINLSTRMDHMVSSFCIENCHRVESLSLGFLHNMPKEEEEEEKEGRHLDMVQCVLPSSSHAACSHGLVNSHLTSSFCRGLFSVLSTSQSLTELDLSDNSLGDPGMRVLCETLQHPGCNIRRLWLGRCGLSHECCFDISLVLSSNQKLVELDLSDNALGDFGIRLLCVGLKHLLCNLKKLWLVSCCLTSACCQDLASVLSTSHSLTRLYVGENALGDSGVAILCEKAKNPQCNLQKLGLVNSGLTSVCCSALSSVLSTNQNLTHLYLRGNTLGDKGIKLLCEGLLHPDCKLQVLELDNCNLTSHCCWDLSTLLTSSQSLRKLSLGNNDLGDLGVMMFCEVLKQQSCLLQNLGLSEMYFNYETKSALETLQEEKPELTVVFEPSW

IC50 (NLRP3 inflammasome [1]; [3]) [nM] | IC50 (NLRP3 inflammasome [2]) [nM] | IC50 (NLRP3 inflammasome [1]; [5]) [nM] | Compound | IC50 (PBMCs; Homo sapiens, PBMC) [nM] | IC50 (TNFα; PBMC) [µM] | IC50 (PBMCs; [4]) [nM] | IC50 (TNFα; read-out: PBMC TNFα IC50) [µM] | IC50 (TNFα; [6]) [µM] | IC50 (TNFα; read-out: PBMC TNF α IC50) [µM]
 |  | < 100 | NS(=O)(=NC(=O)Nc1c2c(c(F)c3c1CCC3)CCC2)c1cnn2c1OCCC2 (single isomer, unassigned) [drawing 669] | < 100 |  |  |  | > 10 | 
 |  | 1000 to 10000 | N=S(=O)(NC(=O)Nc1c2c(c(F)c3c1CCC3)CCC2)c1cnn2c1OCCC2 (single isomer, unassigned) [drawing 670] |  |  | 100 to 1000 |  |  | > 10
 |  | 100 to 1000 | CN[C@@H]1COc2c(S(=N)(=O)NC(=O)Nc3c(C(C)C)cc(F)cc3C(C)C)cnn2C1 (single isomer, unassigned) [drawing 675] | > 10000 |  |  |  | > 10 | 
 |  | 100 to 1000 | CO[C@@H]1COc2c(S(=N)(=O)NC(=O)Nc3c4c(cc5c3CCC5)CCC4)cnn2C1 (stereo partly drawn) [drawing 667] | 100 to 1000 |  |  |  | > 10 | 
 |  | 1000 to 10000 | CO[C@@H]1COc2c(S(=N)(=O)NC(=O)Nc3c(C(C)C)cc(F)cc3C(C)C)cnn2C1 (stereo partly drawn) [drawing 671] |  |  | < 100 |  |  | > 10
 |  | 100 to 1000 | CO[C@@H]1COc2c(S(=N)(=O)NC(=O)Nc3c(C(C)C)cc(F)cc3C(C)C)cnn2C1 (stereo partly drawn) [drawing 672] |  |  | 100 to 1000 |  |  | > 10
 |  | 100 to 1000 | CO[C@@H]1COc2c(S(=N)(=O)NC(=O)Nc3c4c(c(F)c5c3CCC5)CCC4)cnn2C1 (stereo partly drawn) [drawing 679] |  |  | < 100 |  |  | > 10
 |  | < 100 | CO[C@@H]1COc2c(S(=N)(=O)NC(=O)Nc3c4c(c(F)c5c3CCC5)CCC4)cnn2C1 (stereo partly drawn) [drawing 680] |  |  | < 100 |  |  | > 10
 |  | 100 to 1000 | CN(C)[C@@H]1COc2c(S(=N)(=O)NC(=O)Nc3c4c(cc5c3CCC5)CCC4)cnn2C1 (stereo partly drawn) [drawing 681] | < 100 |  |  |  | > 10 | 
 |  | < 100 | CN(C)[C@@H]1COc2c(S(=N)(=O)NC(=O)Nc3c4c(cc5c3CCC5)CCC4)cnn2C1 (stereo partly drawn) [drawing 682] |  |  | < 100 |  |  | > 10

The remaining lines, values behind:

Compound | IC50 (NLRP3 inflammasome [1]; [3]) [nM] | IC50 (NLRP3 inflammasome [2]) [nM] | IC50 (NLRP3 inflammasome [1]; [5]) [nM] | IC50 (PBMCs; Homo sapiens, PBMC) [nM] | IC50 (TNFα; PBMC) [µM] | IC50 (PBMCs; [4]) [nM] | IC50 (TNFα; read-out: PBMC TNFα IC50) [µM] | IC50 (TNFα; [6]) [µM] | IC50 (TNFα; read-out: PBMC TNF α IC50) [µM]
CN[C@@H]1COc2c(S(N)(=O)=NC(=O)Nc3c(C(C)C)cc(F)cc3C(C)C)cnn2C1 (mixture of isomers) [Example 16, (6S)—N′-((4-fluoro-2,6-diisopropylphenyl)carbamoyl)-6-(methylamino)-6,7-dihydro-5H-pyrazolo[5,1-b][1,3]oxazine-3-sulfonimidamide] | 270 |  |  | 131 | > 10 |  |  |  | 
CN[C@@H]1COc2c(S(N)(=O)=NC(=O)Nc3c4c(cc5c3CCC5)CCC4)cnn2C1 (mixture of isomers) [Example 17, (6S)—N′-((1,2,3,5,6,7-hexahydro-s-indacen-4-yl)carbamoyl)-6-(methylamino)-6,7-dihydro-5H-pyrazolo[5,1-b][1,3]oxazine-3-sulfonimidamide] | 19 |  |  | 8 | > 10 |  |  |  | 
CO[C@@H]1COc2c(S(N)(=O)=NC(=O)Nc3c4c(c(F)c5c3CCC5)CCC4)cnn2C1 (mixture of isomers) [Example 18, (6S)—N′-((8-fluoro-1,2,3,5,6,7-hexahydro-s-indacen-4-yl)carbamoyl)-6-methoxy-6,7-dihydro-5H-pyrazolo[5,1-b][1,3]oxazine-3-sulfonimidamide] | 16 |  |  | 0.1 | > 10 |  |  |  | 
NS(=O)(=NC(=O)Nc1c2c(c(F)c3c1CCC3)CCC2)c1cnn2c1OCC2 (racemic) [Example 29, N′-((8-fluoro-1,2,3,5,6,7-hexahydro-s-indacen-4-yl)carbamoyl)-2,3-dihydropyrazolo[5,1-b]oxazole-7-sulfonimidamide] | 94 | 140 |  | 3750 | > 10 |  |  |  | 
NS(=O)(=NC(=O)Nc1c2c(c(F)c3c1CCC3)CCC2)c1cnn2c1OCCCC2 (racemic) [Example 30, N′-((8-fluoro-1,2,3,5,6,7-hexahydro-s-indacen-4-yl)carbamoyl)-5,6,7,8-tetrahydropyrazolo[5,1-b][1,3]oxazepine-3-sulfonimidamide] | 67 | 360 |  | > 10000 | > 10 |  |  |  | 
NS(=O)(=NC(=O)Nc1c2c(cc3c1CCC3)CCC2)c1cnn2c1OCCC2 (single isomer, unassigned) [Example 13] | 35 | 75 |  |  | > 10 | 8 |  |  | 
NS(=O)(=NC(=O)Nc1c2c(cc3c1CCC3)CCC2)c1cnn2c1OCCC2 (single isomer, unassigned) [Example 14] | 1910 | 1200 |  |  |  | 1 | > 10 |  | 
COC1COc2c(S(N)(=O)=NC(=O)Nc3c4c(cc5c3CCC5)CCC4)cnn2C1 (single isomer, unassigned) [Example 19] | 1120 | 640 |  |  | > 10 | 860 |  |  | 
NS(=O)(=NC(=O)Nc1c2c(c(F)c3c1CCC3)CCC2)c1cnn2c1OCCC2 (single isomer, unassigned) [Example 21] | 4720 |  |  |  | > 10 | 1050 |  |  | 
COC1COc2c(S(N)(=O)=NC(=O)Nc3c(C(C)C)cc(F)cc3C(C)C)cnn2C1 (single isomer, unassigned) [Example 23] | 8820 |  |  |  | > 10 | 39 |  |  | 
COC1COc2c(S(N)(=O)=NC(=O)Nc3c(C(C)C)cc(F)cc3C(C)C)cnn2C1 (single isomer, unassigned) [Example 24] | 240 |  |  |  |  | 127 | > 10 |  | 
CNC1COc2c(S(N)(=O)=NC(=O)Nc3c(C(C)C)cc(F)cc3C(C)C)cnn2C1 (single isomer, unassigned) [Example 27] | 120 | 200 |  | > 10000 | > 10 |  |  |  | 
CN(C)C1COc2c(S(N)(=O)=NC(=O)Nc3c4c(cc5c3CCC5)CCC4)cnn2C1 (single isomer, unassigned) [Example 34] | 6 |  |  |  |  | 4 | > 10 |  | 
NS(=O)(=NC(=O)Nc1c2c(cc3c1CCC3)CCC2)c1cnn2c1OCCC2 (single isomer, unassigned) [drawing 661] |  |  | < 100 | < 100 |  |  |  | > 10 | 
N=S(=O)(NC(=O)Nc1c2c(cc3c1CCC3)CCC2)c1cnn2c1OCCC2 (single isomer, unassigned) [drawing 662] |  |  | 1000 to 10000 |  |  | < 100 |  |  | > 10
CO[C@@H]1COc2c(S(=N)(=O)NC(=O)Nc3c(C(C)C)cc(F)cc3C(C)C)cnn2C1 (stereo partly drawn) [drawing 663] |  |  | 100 to 1000 | < 100 |  |  |  | > 10 | 
CN[C@@H]1COc2c(S(=N)(=O)NC(=O)Nc3c4c(cc5c3CCC5)CCC4)cnn2C1 (stereo partly drawn) [drawing 665] |  |  | < 100 | < 100 |  |  |  | > 10 | 
CO[C@@H]1COc2c(S(=N)(=O)NC(=O)Nc3c4c(c(F)c5c3CCC5)CCC4)cnn2C1 (stereo partly drawn) [drawing 666] |  |  | < 100 | < 100 |  |  |  | > 10 | 

Source: patent US12234245B2, “Sulfonimidamide compounds as inhibitors of interleukin-1 activity” (Genentech, Inc., priority 2018, dated 2025)
